# Assay results reported in article PMC6858323, “Multiple conformations facilitate PilT function in the type IV pilus” (Nature Communications, 2019).
# Legend:
# [1] = target: T1, PilT^Gm (PilT4 from Geobacter metallireducens) (Geobacter metallireducens, UniProt Q39VU6); experiment: X-ray crystal structure (OCOCOC); conditions: preincubated with Mg2+ and ATP, unbound nucleotide removed, pH 7.6; nucleotide-binding site
# T1 construct: gene pilT-4; hexamer; domains N2D residues 1-100, CTD 101-353
# [2] = target: T1, PilT^Gm (PilT4 from Geobacter metallireducens); experiment: X-ray crystal structure (anisotropic, about […] A); conditions: 2 mM ANP, 2 mM MgCl2, pH 7.9 reservoir; four of six nucleotide-binding sites, ADP in the other two; CCOCCO conformation
# T1 sequence (Q39VU6 entry or part of it): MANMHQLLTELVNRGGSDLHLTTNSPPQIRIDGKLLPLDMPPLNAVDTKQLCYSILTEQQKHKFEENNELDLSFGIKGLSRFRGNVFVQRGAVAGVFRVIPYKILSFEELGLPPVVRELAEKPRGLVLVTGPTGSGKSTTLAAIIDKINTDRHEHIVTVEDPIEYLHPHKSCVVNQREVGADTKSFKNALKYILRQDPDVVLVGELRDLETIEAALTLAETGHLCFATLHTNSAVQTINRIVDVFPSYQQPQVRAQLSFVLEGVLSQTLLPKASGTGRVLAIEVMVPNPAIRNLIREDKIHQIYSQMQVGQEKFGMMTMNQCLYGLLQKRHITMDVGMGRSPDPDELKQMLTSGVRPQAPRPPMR
SMILES,X-ray crystal structure (OCOCOC) [1],"X-ray crystal structure (anisotropic, about 4.0 A) [2]"
Nc1ncnc2c1ncn2[C@@H]1O[C@H](COP(=O)(O)OP(=O)(O)O)[C@@H](O)[C@H]1O [ADP],An isomorphous structure with high ADP occupancy was obtained,–
Nc1ncnc2c1ncn2[C@@H]1O[C@H](COP(=O)(O)OP(=O)(O)NP(=O)(O)O)[C@@H](O)[C@H]1O [ANP],–,density consistent with ANP could be modeled into four of the six nucleotide-binding sites
